Common to all, as to assay type: cell-based
Assay [1] addresses T1, GSPT1 (Homo sapiens, UniProt P15170+Q96SW2). As to the kind of experiment: GSPT1 degradation, Western Blot, MV-4-11 cells, 0.1 μM, 4 hours. Conditions: MV4-11, % reduction of GSPT1 compared to DMSO, normalized to GAPDH, read-out: GSPT1 degradation classification. The method, then: Compounds of the present disclosure was added to cells (final DMSO concentration of 0.1%) and incubated for 4 hours. GSPT1 levels were determined in MV-4-11 cells using Western Blot analysis. […] Protein levels were normalized to GAPDH levels.
The efficacy of GSPT1 degradation of a part of compounds of the present disclosure was determined by treating MV-4-11 cells at 0.1 μM (final DMSO concentration of 0.1%) for 4 hours. GSPT1 levels were determined using Western Blot and normalized to GAPDH levels.
A general note: A western blot detects proteins with antibodies after separation by electrophoresis.

For the next assay, the system named is MV-4-11 cells. In words: AML cell viability, CellTiter-Glo, MV-4-11 cells. Conditions: Homo sapiens, MV4-11; TABLE 2; MV-4-11 cells assumed, CellTiter-Glo, 44 hours; read-out: Cell viability classification. Here is the method:
MV4-11 cells were obtained from ATCC and grown in IMDM supplemented with 10% FBS. The cells were maintained at 37° C. under 5% CO2. […] The luminescence was normalized to that of DMSO-treated samples. IC50 values were obtained using three-parameter non-linear regressions using Prism (GraphPad). […] Cell viability was measured using the CellTiter-Glo reagent after 44 hours of treatment. […] MV4-11 cells were obtained from ATCC and grown in IMDM supplemented with 10% FBS. The cells were maintained at 37° C. under 5% CO2. […] Cell viability was measured using the CellTiter-Glo reagent after 44 hours of treatment.
On the technique in general: ATP-based viability assays read luminescence as a measure of living cells.

Another assay deals with HCC827 cells. As to the kind of experiment: NSCLC cell viability, CellTiter-Glo, HCC827 cells. The note with it: Homo sapiens, read-out: Cell viability classification. The method, then:
(§1) HCC827 cells were obtained from Korean Cell Line Bank (KCLB) and grown in RPMI supplemented with 10% FBS. The cells were maintained at 37° C. under 5% CO2.
(§2) The efficacy of the present disclosure to reduce viability of Non-Small Cell Lung Cancer (NSCLC) cells was assessed using CellTiter-Glo Cell Viability Assay (Promega) according to the manufacturer's protocol. […] The luminescence was normalized to that of DMSO-treated samples. IC50 values were obtained using three-parameter non-linear regressions using Prism (GraphPad).
The efficacy of additional compounds of the present disclosure in reducing HCC827 cell viability was determined by treating HCC827 cells at various concentrations (final DMSO concentration of 0.1%). Cell viability was measured using the CellTiter-Glo reagent after 72 hours of treatment.

In assay [2] the target is T1, GSPT1. As to the kind of experiment: GSPT1 degradation, Western Blot, HCC827 cells, 1 μM, 16 hours. Conditions: % reduction of GSPT1 compared to DMSO, normalized to GAPDH, read-out: GSPT1 degradation classification. The method, then:
as §1
Compounds of the present disclosure was added to cells (final DMSO concentration of 0.1%) and incubated for 16 hours. GSPT1 levels were determined in HCC827 cells using Western Blot analysis. […] Protein levels were normalized to GAPDH levels.
The efficacy of GSPT1 degradation of a part of compounds of the present disclosure was determined by treating HCC827 cells at 1 μM (final DMSO concentration of 0.1%) for 16 hours. GSPT1 levels were determined using Western Blot and normalized to GAPDH levels.

Another assay relates to A549 cells. In words: NSCLC cell viability, CellTiter-Glo, A549 cells. Conditions: Homo sapiens, 72 hours of treatment, read-out: Cell viability classification. The method, then: A549 cells were obtained from Korean Cell Line Bank (KCLB) and grown in RPMI supplemented with 10% FBS. The cells were maintained at 37° C. under 5% CO2.
as §2
The efficacy of additional compounds of the present disclosure in reducing A549 cell viability was determined by treating A549 cells at various concentrations (final DMSO concentration of 0.1%). Cell viability was measured using the CellTiter-Glo reagent after 72 hours of treatment.

Assay [3] has as its target T1, GSPT1. In words: GSPT1 degradation, Western Blot, A549 cells, 1 μM, 16 hours. Conditions: % reduction of GSPT1 compared to DMSO, normalized to GAPDH, read-out: GSPT1 degradation classification.
Procedure: Compounds of the present disclosure was added to cells (final DMSO concentration of 0.1%) and incubated for 16 hours. GSPT1 levels were determined in A549 cells using Western Blot analysis. […] Protein levels were normalized to GAPDH levels.
The efficacy of GSPT1 degradation of a part of compounds of the present disclosure was determined by treating A549 cells at 1 μM (final DMSO concentration of 0.1%) for 16 hours. GSPT1 levels were determined using Western Blot and normalized to GAPDH levels.
Where [4] appears, read: HCC827 cells, CellTiter-Glo, 72 hours of treatment.

Where two headings read alike, the source gives them in different places.

T1 sequence (P15170 whole entry): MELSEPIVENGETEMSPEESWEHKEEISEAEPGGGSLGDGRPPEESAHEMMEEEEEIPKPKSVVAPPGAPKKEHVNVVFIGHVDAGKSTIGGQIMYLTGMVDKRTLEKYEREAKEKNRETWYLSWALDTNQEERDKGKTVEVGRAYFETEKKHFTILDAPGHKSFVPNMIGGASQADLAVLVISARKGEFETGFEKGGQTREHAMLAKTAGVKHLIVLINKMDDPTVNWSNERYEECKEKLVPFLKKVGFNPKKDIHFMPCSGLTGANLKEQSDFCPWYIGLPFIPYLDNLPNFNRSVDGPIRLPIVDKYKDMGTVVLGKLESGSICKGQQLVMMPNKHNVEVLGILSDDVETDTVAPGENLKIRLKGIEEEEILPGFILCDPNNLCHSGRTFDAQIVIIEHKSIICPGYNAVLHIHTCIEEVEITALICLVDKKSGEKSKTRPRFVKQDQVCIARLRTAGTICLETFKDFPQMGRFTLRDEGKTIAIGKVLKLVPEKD
T1 sequence (Q96SW2 whole entry): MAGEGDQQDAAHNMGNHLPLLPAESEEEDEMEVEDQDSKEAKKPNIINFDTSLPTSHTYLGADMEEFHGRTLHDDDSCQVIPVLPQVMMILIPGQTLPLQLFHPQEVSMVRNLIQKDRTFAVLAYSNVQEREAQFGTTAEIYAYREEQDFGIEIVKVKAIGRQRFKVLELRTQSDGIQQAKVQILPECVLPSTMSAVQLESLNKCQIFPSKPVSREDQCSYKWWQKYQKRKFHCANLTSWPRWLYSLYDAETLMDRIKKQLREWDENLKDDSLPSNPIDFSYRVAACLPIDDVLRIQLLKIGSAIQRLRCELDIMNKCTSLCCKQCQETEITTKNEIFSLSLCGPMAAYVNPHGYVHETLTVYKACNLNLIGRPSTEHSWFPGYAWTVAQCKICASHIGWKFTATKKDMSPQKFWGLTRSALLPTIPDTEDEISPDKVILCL
T1 sequence (Q16531 whole entry partner): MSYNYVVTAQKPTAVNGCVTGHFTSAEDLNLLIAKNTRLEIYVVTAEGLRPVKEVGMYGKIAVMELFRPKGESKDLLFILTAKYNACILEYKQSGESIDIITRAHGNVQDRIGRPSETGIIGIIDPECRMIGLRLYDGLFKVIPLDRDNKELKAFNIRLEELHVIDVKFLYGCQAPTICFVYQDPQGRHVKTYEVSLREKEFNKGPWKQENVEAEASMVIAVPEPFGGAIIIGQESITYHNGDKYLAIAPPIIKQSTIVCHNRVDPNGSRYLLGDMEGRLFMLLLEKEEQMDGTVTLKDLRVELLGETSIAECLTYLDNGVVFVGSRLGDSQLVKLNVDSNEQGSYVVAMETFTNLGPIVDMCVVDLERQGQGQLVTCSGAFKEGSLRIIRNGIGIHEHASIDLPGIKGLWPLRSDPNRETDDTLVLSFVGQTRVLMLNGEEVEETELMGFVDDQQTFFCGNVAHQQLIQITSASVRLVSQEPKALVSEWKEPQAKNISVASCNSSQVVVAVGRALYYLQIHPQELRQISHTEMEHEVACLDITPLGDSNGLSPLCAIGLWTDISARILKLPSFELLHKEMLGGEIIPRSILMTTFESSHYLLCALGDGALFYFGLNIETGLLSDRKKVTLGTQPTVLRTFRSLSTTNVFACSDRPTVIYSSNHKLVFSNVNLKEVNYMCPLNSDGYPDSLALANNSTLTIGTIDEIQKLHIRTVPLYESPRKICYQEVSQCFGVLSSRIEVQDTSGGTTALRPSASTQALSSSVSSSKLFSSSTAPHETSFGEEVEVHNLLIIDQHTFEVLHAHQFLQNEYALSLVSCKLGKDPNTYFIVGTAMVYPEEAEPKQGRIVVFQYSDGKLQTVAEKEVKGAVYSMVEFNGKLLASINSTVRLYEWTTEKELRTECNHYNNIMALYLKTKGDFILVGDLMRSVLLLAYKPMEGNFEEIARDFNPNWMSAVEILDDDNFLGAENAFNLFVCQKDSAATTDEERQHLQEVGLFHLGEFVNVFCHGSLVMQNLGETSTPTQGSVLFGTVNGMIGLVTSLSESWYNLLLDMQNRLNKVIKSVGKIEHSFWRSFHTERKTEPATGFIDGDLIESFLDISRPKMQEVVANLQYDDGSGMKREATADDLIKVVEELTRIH

For `O=C1CCC(N2Cc3cc(C(=O)N4CCc5c(F)ccc(F)c54)ccc3C2=O)C(=O)N1` (stereo not drawn) [Example 63, 3-(5-(4,7-difluoroindoline-1-carbonyl)-1-oxoisoindolin-2-yl)piperidine-2,6-dione], the inhibition at 0.1 µM on GSPT1 [1] is under 50%. In addition, the IC50 in the assay on MV-4-11 cells lay within 100 to 1000 nM. With `O=C1CCC(N2Cc3cc(C(=O)N4CCc5c4ccc(F)c5F)ccc3C2=O)C(=O)N1` (stereo not drawn) [Example 65, 3-(5-(4,5-difluoroindoline-1-carbonyl)-1-oxoisoindolin-2-yl)piperidine-2,6-dione], the inhibition at 0.1 µM on GSPT1 [1] was under 50%. Also, the IC50 in the assay with MV-4-11 cells is under 100 nM. As for `O=C1CCC(N2Cc3cc(C(=O)N4CCc5c4ccc(Cl)c5F)ccc3C2=O)C(=O)N1` (stereo not drawn) [Example 66, 3-(5-(5-chloro-4-fluoroindoline-1-carbonyl)-1-oxoisoindolin-2-yl)piperidine-2,6-dione], at GSPT1 [1], the inhibition at 0.1 µM is under 50%. For the same molecule, the IC50 with MV-4-11 cells is under 100 nM. The like results for `O=C1CCC(N2Cc3cc(C(=O)Nc4csc5cccc(F)c45)ccc3C2=O)C(=O)N1` (stereo not drawn) [Example 67, 2-(2,6-dioxopiperidin-3-yl)-N-(4-fluorobenzo[b]thiophen-3-yl)-1-oxoisoindoline-5-carboxamide] were, in that order, 50 to 75% and under 100 nM.

Turning to `O=C1CCC(N2Cc3cc(C(=O)Nc4csc5ccc(F)cc45)ccc3C2=O)C(=O)N1` (stereo not drawn) [Example 68, 2-(2,6-dioxopiperidin-3-yl)-N-(5-fluorobenzo[b]thiophen-3-yl)-1-oxoisoindoline-5-carboxamide], the inhibition at 0.1 µM on GSPT1 [1] lay within 50 to 75%. Moreover, the IC50 in the assay with MV-4-11 cells was under 100 nM. In the case of `O=C1CCC(N2Cc3cc(C(=O)Nc4csc5cc(F)ccc45)ccc3C2=O)C(=O)N1` (stereo not drawn) [Example 69, 2-(2,6-dioxopiperidin-3-yl)-N-(6-fluorobenzo[b]thiophen-3-yl)-1-oxoisoindoline-5-carboxamide], the inhibition at 0.1 µM at GSPT1 [1] is 50 to 75%. In addition, the IC50 with MV-4-11 cells was under 100 nM. The like results for `O=C1CCC(N2Cc3cc(C(=O)Nc4csc5c(F)cccc45)ccc3C2=O)C(=O)N1` (stereo not drawn) [Example 70, 2-(2,6-dioxopiperidin-3-yl)-N-(7-fluorobenzo[b]thiophen-3-yl)-1-oxoisoindoline-5-carboxamide] were, in that order, under 50% and under 100 nM.

As for `O=C1CCC(N2Cc3cc(C(=O)NC45CC(F)(C4)C5)ccc3C2=O)C(=O)N1` (stereo not drawn) [Example 71, 2-(2,6-dioxopiperidin-3-yl)-N-(3-fluorobicyclo[1.1.1]pentan-1-yl)-1-oxoisoindoline-5-carboxamide], the inhibition at 0.1 µM on GSPT1 [1] is under 50%. Also, the IC50 in the assay with MV-4-11 cells was over 1000 nM.

As to `O=C1CCC(N2Cc3cc(C(=O)NC45CCC(F)(CC4)CC5)ccc3C2=O)C(=O)N1` (stereo not drawn) [Example 72, 2-(2,6-dioxopiperidin-3-yl)-N-(4-fluorobicyclo[2.2.2]octan-1-yl)-1-oxoisoindoline-5-carboxamide], the inhibition at 0.1 µM on GSPT1 [1] lay in the range of 50 to 75%. In addition, the IC50 in the assay on MV-4-11 cells fell in the range of 100 to 1000 nM. Take `O=C1CCC(N2Cc3cc(C(=O)N4CCc5c(Cl)ccc(F)c54)ccc3C2=O)C(=O)N1` (stereo not drawn) [Example 86, 3-(5-(4-chloro-7-fluoroindoline-1-carbonyl)-1-oxoisoindolin-2-yl)piperidine-2,6-dione]: the IC50 in the assay with HCC827 cells (HCC827, 72 h) is over 1000 nM.

On to `O=C1CCC(N2Cc3cc(C(=O)N4Cc5cccc(F)c5C4)ccc3C2=O)C(=O)N1` (stereo not drawn) [Example 87, 3-(5-(4-fluoroisoindoline-2-carbonyl)-1-oxoisoindolin-2-yl)piperidine-2,6-dione], for which, on GSPT1 [2], the inhibition at 1 µM is over 75%. Also, the IC50 in the assay on HCC827 cells (HCC827, 72 h) is under 1000 nM. As to `O=C1CCC(N2Cc3cc(C(=O)N4Cc5ccc(F)cc5C4)ccc3C2=O)C(=O)N1` (stereo not drawn) [Example 88, 3-(5-(5-fluoroisoindoline-2-carbonyl)-1-oxoisoindolin-2-yl)piperidine-2,6-dione], on GSPT1 [2], the inhibition at 1 µM was over 75%. The IC50 in the assay on HCC827 cells (HCC827, 72 h) was under 1000 nM. For `O=C1CCC(N2Cc3cc(C(=O)Nc4nsc5ccccc45)ccc3C2=O)C(=O)N1` (stereo not drawn) [Example 89, N-(benzo[d]isothiazol-3-yl)-2-(2,6-dioxopiperidin-3-yl)-1-oxoisoindoline-5-carboxamide], the IC50 in the assay on HCC827 cells (setting [4]) is over 1000 nM. Still for that read-out and setting: with `O=C1CCC(N2Cc3cc(C(=O)Nc4cscn4)ccc3C2=O)C(=O)N1` (stereo not drawn) [Example 90, 2-(2,6-dioxopiperidin-3-yl)-1-oxo-N-(thiazol-4-yl)isoindoline-5-carboxamide] the figure was over 1000 nM. As to `O=C1CCC(N2Cc3cc(C(=O)Nc4csc5ccccc45)c(F)cc3C2=O)C(=O)N1` (stereo not drawn) [Example 91, N-(benzo[b]thiophen-3-yl)-2-(2,6-dioxopiperidin-3-yl)-6-fluoro-1-oxoisoindoline-5-carboxamide], the IC50 with A549 cells is under 1000 nM. On GSPT1 [3], the inhibition at 1 µM was over 75%. For `O=C1CCC(N2Cc3cc(C(=O)N4CCc5c(F)cc(F)cc54)ccc3C2=O)C(=O)N1` (stereo not drawn) [Example 92, 3-(5-(4,6-difluoroindoline-1-carbonyl)-1-oxoisoindolin-2-yl)piperidine-2,6-dione], the IC50 with A549 cells was under 1000 nM. Same read-out and setting: the same measure for `O=C1CCC(N2Cc3cc(C(=O)Nc4ccccc4)ccc3C2=O)C(=O)N1` (stereo not drawn) [Example 93, 2-(2,6-dioxopiperidin-3-yl)-1-oxo-N-phenylisoindoline-5-carboxamide]: 1000 to 30000 nM; for `O=C1CCC(N2Cc3cc(C(=O)Nc4ccccc4F)ccc3C2=O)C(=O)N1` (stereo not drawn) [Example 94, 2-(2,6-dioxopiperidin-3-yl)-N-(2-fluorophenyl)-1-oxoisoindoline-5-carboxamide]: over 1000 nM; for `O=C1CCC(N2Cc3cc(C(=O)Nc4cccc5cccnc45)ccc3C2=O)C(=O)N1` (stereo not drawn) [Example 95, 2-(2,6-dioxopiperidin-3-yl)-1-oxo-N-(quinolin-8-yl)isoindoline-5-carboxamide]: over 1000 nM. On to `O=C1CCC(N2Cc3cc(C(=O)NC4CCCCC4)ccc3C2=O)C(=O)N1` (stereo not drawn) [Example 96, N-cyclohexyl-2-(2,6-dioxopiperidin-3-yl)-1-oxoisoindoline-5-carboxamide], for which the IC50 in the assay on A549 cells is 1000 to 30000 nM. For the same molecule, at GSPT1 [3], the inhibition at 1 µM was 50 to 75%.

For the origin of these results see patent US20260285872A1, “COMPOUNDS AND METHODS FOR DEGRADING GSPT1” (priority 2023, published 2026).
